Assays:
[1] = Brain levels after oral dosing in mice by LC/MS/MS; assay type: in vivo, Male CD1 mice; conditions: brains collected at 2, 4 and 7 hrs post-dose after oral dosing of test compounds
Experimental: Animals: Male CD1 mice (Charles River) weighing about 25 g—with free access to food and water.
Dose Groups The compounds of this invention were administered to the test animals at a dose, which is molar equivalent to 10 mg/kg of the parent compound, ((R)-3-amino-2-hydroxy-propyl)-cyclohexylmethyl-phosphinic acid. Each of the test compounds was formulated at this dose level to yield a dose volume of 10 mL/kg and administered by oral gavage to a group of three mice per time point in each study group. Formulations: The compounds of this invention were dissolved in vehicle of 0.2% Tween 80 and 0.5% methylcellulose (MC) at a concentration of about 1 mg/mL. Samples: The blood samples (for plasma) were collected at the following time points: 5, 15 30 and 45 min […]; and 1, 2, 3, 4, 5, and 7 hrs post-dose. Brains were collected at 2, 4 and 7 hrs post-dose Blood Handling The blood samples were added to tubes containing 20 μL of a stock 10 mg/ml solution of sodium fluoride. The blood tubes were then stored in a refrigerator at approximately about 4° C. […] Bioanalysis: All plasma and brain samples were then analyzed for concentrations of the test compound as well as the parent compound, ((R)-3-amino-2-hydroxy-propyl)-cyclohexylmethyl-phosphinic acid by LC/MS/MS. […]
Whereas, in most cases, the levels of the test compound was too small to be detected for all of the test compounds analyzed.

[2] = system: Male Wistar rats; assay: Chronic Mild Stress Model (CMS), sucrose consumption; assay type: in vivo; conditions: 3 and 30 mg/kg orally, daily for five weeks; imipramine 10 mg/kg ip
Description: CMS uses mild stressors, such as food and water deprivation, cage tilts, changes of cage mates, etc. Over a period of weeks of exposure to the mild stressors, the animals gradually reduce their consumption of a highly preferred sucrose solution which persists (in untreated animals) for several weeks following the cessation of stress. This decreased sensitivity to reward (the sucrose solution) reflects anhedonia, a symptom of a major depressive episode (see for example, Behavioral Pharmacol. 5: Suppl. 1, p. 86 (1994) where lithium, carbamazepine and ketoconazole were evaluated in CMS; Psychopharmacology 93:358-364 (1987) where a tricyclic antidepressant was evaluated in CMS; Behavioral Pharmacology: 5:344-350 (1994) where a catechol-O-methyl transferase inhibitor was evaluated in CMS). […]
The animals are first trained to consume a 1% sucrose solution; training consists of eight 1 hour baseline tests in which sucrose is presented, in the home cage, following 14 hours food and water deprivation; intake is measured by weighing pre-weighed bottles containing the sucrose solution at the end of the test. Subsequently, sucrose consumption is monitored, under similar conditions, at weekly intervals throughout the whole experiment. […]
Results are analyzed by multiple analysis of variance, followed by Fisher's LSD test for post hoc comparisons of means.

## NC[C@@H](O)CP(=O)(O)CC1CCCCC1 [parent compound, ((R)-3-amino-2-hydroxy-propyl)-cyclohexylmethyl-phosphinic acid]
[1]
  concentration of the parent compound in brain: proportional to the concentration of the parent compound in plasma
[2]
  activity in CMS (sucrose intake) compared with imipramine: equal to that of imipramine
